Measured values taken from patent US10442767B2 (priority 2012, dated 2019).
Read-outs that look alike come from different tables or passages of the source.

Legend:
Shaker K^+ channel = molecular target: T1, Shaker K^+ channel (Drosophila melanogaster, UniProt P08510); test: Inhibition of K+ currents, cut-open oocyte voltage clamp; format: cell-based, Xenopus oocytes
T1 construct: injecting approximately 50 ng of WT Shaker cRNA (kit Ambion) into the oocytes; expressed in transfected cells; host or cells: Xenopus laevis oocytes (cRNA injection)
T1 sequence (P08510 whole entry): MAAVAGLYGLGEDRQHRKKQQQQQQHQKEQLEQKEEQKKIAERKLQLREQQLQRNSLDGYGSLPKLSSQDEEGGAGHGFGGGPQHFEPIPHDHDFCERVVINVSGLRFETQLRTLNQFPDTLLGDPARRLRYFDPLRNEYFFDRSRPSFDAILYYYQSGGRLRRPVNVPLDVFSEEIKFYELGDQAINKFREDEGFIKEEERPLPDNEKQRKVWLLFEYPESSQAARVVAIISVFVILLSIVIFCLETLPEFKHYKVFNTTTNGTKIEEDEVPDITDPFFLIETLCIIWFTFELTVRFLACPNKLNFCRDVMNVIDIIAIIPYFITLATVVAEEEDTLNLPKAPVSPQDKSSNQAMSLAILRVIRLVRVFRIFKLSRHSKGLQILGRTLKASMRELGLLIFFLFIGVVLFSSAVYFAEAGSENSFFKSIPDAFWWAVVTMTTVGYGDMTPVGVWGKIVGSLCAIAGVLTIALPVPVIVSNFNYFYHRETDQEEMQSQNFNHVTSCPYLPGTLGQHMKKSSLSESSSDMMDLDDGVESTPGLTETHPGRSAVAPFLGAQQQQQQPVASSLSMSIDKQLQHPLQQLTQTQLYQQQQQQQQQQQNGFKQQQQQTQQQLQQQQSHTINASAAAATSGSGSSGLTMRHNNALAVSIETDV
Procedure: Using the cut-open oocyte voltage clamp studies to screen compounds to determine their potency towards Kv1 cannels was previously described in Starace and Bezanilla et al. (2004).
For this experiment, Shaker K^+ channel from D. […] was chosen as the archetypical voltage gated K^+ channel that gives name to the family.
Electrophysiology studies are conducted according to the protocol by Stefani and Bezanilla (1998). Briefly, K^+ channel Shaker cRNA is injected into Xenopus oocytes 24 h after their surgical extraction from adult frogs. 1-5 days after injection channel currents are recorded using the cut-open voltage-clamp.
K^+ channel expression in Xenopus oocytes membranes was achieved by injecting approximately 50 ng of WT Shaker cRNA (kit Ambion) into the oocytes 24 h after surgical extraction from adult frogs and collagenase treatment. Injected oocytes were maintained in a standard oocytes solution (100 mM NaCl, 5 mM KCl, 2 mM CaCl2, and 10 mM Hepes at pH 7.5) at 16.5° C. and recordings were performed 1-3 days after injection.
K^+ currents were recorded from oocytes expressing Shaker K^+ channels using the cut-open voltage clamp technique as described by Stefani and Bezanilla. The internal solution was 120 mM KOH, 20 mM HEPES-methyl sulfonate (MES) pH 7.4, 2 mM EGTA. The external solution was 12 mM KOH, 105 mM N-methyl-D-glucamine-MES pH 7.4, 20 mM HEPES, 2 mM CaOH. […] After application, cells were voltage-clamped at least 5 min at 0 mV, then voltage-clamped at −80 mV for 1-2 min. K^+ currents were generated by applying series of 50 ms pulses from −70 mV to +40 mV in increments of 10 mV. […] Analysis of the traces was done using an in-house software. The half-maximal inhibitory concentration (IC50) for each drug was calculated by plotting the relative K^+ current vs. concentration and fitted to the Hill equation using the software Origin.
EC50=10^<log EC50>; where <log EC50>=average of log EC50 values from all experiments with the same drug. 95% C.I.=[Upper Limit . . . Lower Limit]; where U.L.=10^(log EC50+s.d.) and L.L.=10^(log EC50−s.d.). The half-life (t1/2) in the stability and pharmacokinetic experiments was calculated by fitting the data to the equation Ct=C0*exp(−k*t) where C0=initial concentration, Ct=concentration at time t, and k=ln 2/t1/2. Student t-test was used to compare results and P<0.05 was considered significant.

Stability in microsomes = format: in vitro ADME, CD1 mouse; conditions: mouse liver microsomes
Procedure: The stability of these drugs in mouse plasma and mouse liver microsomes was also tested. Liver microsomes contain large amounts of cytochrome P450 and can be used to estimate the metabolic stability of drugs.
study compounds were incubated at initial concentration of 1 μM with liver microsomes from CD1 mouse (0.04 mg/mL) in PBS in the presence or absence of enzyme cofactors (1.3 mM NADP^+, 3.3 mM MgCl2, 3.3 mM G6P and 1 U/ml G6PDH, 1 mM UDPGA and 4.7 μg/ml Alamethicin). After t=0, 20, 40 and 60 min, a sample was removed and the reaction was stopped by adding 1 volume of acetonitrile. The loss of compound was determined by LC-MS analysis comparing the amount of compound in the sample to the respective reference samples (without cofactors). To ensure that the assay is reliable, Propanolol and Verapamil were included as control compounds. […]
The Hill equation used to fit the data from the voltage-clamp and the optic nerve experiments was as follows: y=y0+(yf−y0)*x^n/(k^n+x^n); where n refers to the Hill coefficient (typically 1±0.1) and k refers to EC50 or IC50. y0 and yf refers to the origin and final ordinate values and were fixed at 1±0.1 or 0±0.1 depending on the experiment. […] The half-life (t1/2) in the stability and pharmacokinetic experiments was calculated by fitting the data to the equation Ct=C0*exp(−k*t) where C0=initial concentration, Ct=concentration at time t, and k=ln 2/t1/2. […]

[1] = Pharmacokinetic study after single intravenous dose; format: in vivo, mice (CD-1); conditions: female, CD-1, mouse, mice, i.v. 0.75 mg/kg
Procedure: 39 mice (CD-1, 6-weeks old, female) were used in the study. […] The drugs were dissolved in PBS and administered via tail-vein injection to achieve a dose of 0.75 mg/kg of body weight. At specific times post injection (10 min, 30 min, 1 h, 2 h, 4 h and 24 h) blood and brain samples were collected. Blood samples were transferred into tubes containing 5% EDTA, stored on ice, and centrifuged (4° C., 1000 rpm, 15 min). Plasma (upper phase) was transferred to a new tube and stored at −80° C. for further analysis. Brain tissue samples were collected after intracardial perfusion of the mouse. Brain tissue samples were stored at −80° C. for further analysis. Drug quantification in plasma: Briefly, to a 1.5 mL Eppendorf tube containing 50 μl of plasma, 200 μl of ice-cold acetonitrile containing 1,000 ng/ml Progesterone (used as internal standard) was added in order to precipitate the proteins. The sample was vortexed, mixed and centrifuged at 4000×g for 10 min at 4° C. to remove precipitates. 140 μl supernatant was collected and transferred to a 500 μl 96-well polypropylene plate and covered using silicone plate mat. 40 μl of sample was injected in into LC-MS. Using the same sample preparation procedure 11 standard solutions ranging from 50 ng/mL to 100 μg/mL were prepared, analyzed by LC-MS and used as a calibration curve to correlate peak area of the samples to concentration. Drug quantification in brain: the mouse brain was weighted and 1 mL of water per 400 mg of tissue was added. The sample was homogenized using an electric tissue homogenizer. To a 1.5 mL Eppendorf tube containing 50 μl of homogenized sample, 200 μl of ice-cold acetonitrile containing 1000 ng/ml Demeclocycline (used as internal standard) was added in order to precipitate the proteins. The sample was vortexed, mixed and centrifuged at 4000×g for 10 min at 4° C. to remove precipitates. 140 μl supernatant was collected and transferred to a 500 μl 96-well polypropylene plate and covered using silicone plate mat. 40 μl of each sample was injected into LC-MS. Using the same sample preparation procedure 11 standard solutions ranging from 50 ng/mL to 100 μg/mL were prepared, analyzed by LC-MS and used as a calibration curve to correlate peak area of the samples to concentration.
The Hill equation used to fit the data from the voltage-clamp and the optic nerve experiments was as follows: y=y0+(yf−y0)*x^n/(k^n+x^n); where n refers to the Hill coefficient (typically 1±0.1) and k refers to EC50 or IC50. y0 and yf refers to the origin and final ordinate values and were fixed at 1±0.1 or 0±0.1 depending on the experiment. EC50=10^<log EC50>; where <log EC50>=average of log EC50 values from all experiments with the same drug. 95% C.I.=[Upper Limit . . . Lower Limit]; where U.L.=10^(log EC50+s.d.) and L.L.=10^(log EC50−s.d.). The half-life (t1/2) in the stability and pharmacokinetic experiments was calculated by fitting the data to the equation Ct=C0*exp(−k*t) where C0=initial concentration, Ct=concentration at time t, and k=ln 2/t1/2. Student t-test was used to compare results and P<0.05 was considered significant.

Nc1ccncc1F [3-F-4-AP, 3-fluoro-4-aminopyridine]
affinity for K^+ channels compared with 4-AP (Shaker K^+ channel; cut-open oocyte voltage clamp (Example 2)): very similar affinity to 4-AP
IC50 (Shaker K^+ channel; relative K+ current at +20 mV, Xenopus oocytes, Hill fit, read-out: half-maximal inhibitory concentration (IC50)): 250 µM
times more stable than 4-AP in microsomes (Stability in microsomes): 2.7 times
Kp ([1]; brain and plasma, read-out: Cbrain/Cplasma (maximum in the brain over maximum in plasma)): 0.214 ± 0.17
half-life ([1]; brain, read-out: half-life in brain (converted)): 85.8 min
half-life ([1]; plasma, read-out: half-life in plasma (converted)): 20.4 min
